In the supplement of paper PMC11061612:

Key:
Assay in all cases: Bliss excess, mean over the matrix (fraction); higher = more synergy
[1] = tested on: MFE-280 (Endometrial Carcinoma)
In short: (§1)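 Cell lines grown in DMEM/F12 or RPMI with 10% FBS were plated in 1536-well plates and held 24 hours at 37°C, 5% CO2 before 72 hours of exposure to two-drug dose matrices, with DMSO typically at 0.2%. CellTiter-Glo 2.0 luminescence gave viability, which was converted to inhibition. Vehicle wells were set to 0 and blank wells to 1. Combination Emax is the second-highest inhibition in the matrix, and Bliss excess is the observed combination effect minus the expected EA + EB − EA·EB, where EA and EB are the single-agent effects.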

[2] = tested on: LK-2 (Squamous Cell Lung Carcinoma)
In short: as §1

[3] = tested on: PC-3_[JPC-3] (Lung Adenocarcinoma)
In short: as §1

WM793B (Melanoma) = tested on: WM793B (Melanoma)
In short: as §1

[4] = tested on: SHP-77 (Small Cell Lung Carcinoma)
In short: as §1

A2058 (Melanoma) = tested on: A2058 (Melanoma)
In short: as §1

[5] = tested on: OAW-42 (Ovarian Carcinoma)
In short: as §1

[6] = tested on: NCI-H446 (Small Cell Lung Carcinoma)
In short: as §1

[7] = tested on: RERF-LC-Sq1 (Squamous Cell Lung Carcinoma)
In short: as §1

[8] = tested on: KE-37 (T-Lymphoblastic Leukemia)
In short: as §1

LN-229 (Glioblastoma) = tested on: LN-229 (Glioblastoma)
In short: as §1

IST-MES1 (Mesothelioma) = tested on: IST-MES1 (Mesothelioma)
In short: as §1

[9] = tested on: SK-PN-DW (Other Solid Carcinomas)
In short: as §1

SF539 (Glioblastoma) = tested on: SF539 (Glioblastoma)
In short: as §1

[10] = tested on: PANC-03-27 (Pancreatic Carcinoma)
In short: as §1

[11] = tested on: NCI-H2342 (Lung Adenocarcinoma)
In short: as §1

[12] = tested on: GP5d (Colorectal Carcinoma)
In short: as §1

[13] = tested on: MKN45 (Gastric Carcinoma)
In short: as §1

SF268 (Low Grade Glioma) = tested on: SF268 (Low Grade Glioma)
In short: as §1

[14] = tested on: FADU (Head and Neck Carcinoma)
In short: as §1

Structure (SMILES) | Bliss excess [1] | Bliss excess [2] | Bliss excess [3] | Bliss excess (WM793B (Melanoma)) | Bliss excess [4] | Bliss excess (A2058 (Melanoma)) | Bliss excess [5] | Bliss excess [6] | Bliss excess [7] | Bliss excess [8] | Bliss excess (LN-229 (Glioblastoma)) | Bliss excess (IST-MES1 (Mesothelioma)) | Bliss excess [9] | Bliss excess (SF539 (Glioblastoma)) | Bliss excess [10] | Bliss excess [11] | Bliss excess [12] | Bliss excess [13] | Bliss excess (SF268 (Low Grade Glioma)) | Bliss excess [14]
NC1(C(=O)N[C@@H](CCO)c2ccc(Cl)cc2)CCN(c2ncnc3[nH]ccc23)CC1 [Capivasertib] + CC(=O)c1c(C)c2cnc(Nc3ccc(N4CCNCC4)cn3)nc2n(C2CCCC2)c1=O [Palbociclib] (first compound max 10 µM, 7x7, partner max 10 µM) | -0.0624 | 0.0401 | 0.002 | -0.0375 | -0.142 | -0.0001 | -0.0305 | -0.03 | 0.0352 | 0.0024 | -0.0387 | -0.0632 | -0.0603 | -0.0486 | -0.0187 | 0.0214 | -0.018 | 0.0256 | -0.055 | -0.0259
NC1(C(=O)N[C@@H](CCO)c2ccc(Cl)cc2)CCN(c2ncnc3[nH]ccc23)CC1 [Capivasertib] + CC(C)n1c(=O)n(C)c2cnc3cc(F)c(-c4ccc(OCCCN5CCCCC5)nc4)cc3c21 [AZD1390] (first compound max 10 µM, 7x7, partner max 0.3 µM) | -0.0763 | -0.0165 | -0.0982 | -0.0826 | -0.0178 | -0.0336 | -0.0171 | -0.0866 | -0.0655 | -0.0392 | -0.0755 | -0.0553 | -0.0892 | -0.0528 | 0.0162 | -0.0212 | -0.0843 | -0.0646 | -0.0398 | -0.0562
NC1(C(=O)N[C@@H](CCO)c2ccc(Cl)cc2)CCN(c2ncnc3[nH]ccc23)CC1 [Capivasertib] + CCN(CCO)CCCOc1ccc2c(Nc3cc(CC(=O)Nc4cccc(F)c4)[nH]n3)ncnc2c1 [AZD2811] (first compound max 10 µM, 7x7, partner max 1 µM) | -0.0112 | -0.0303 | -0.0168 | 0.002 | -0.0208 | 0.0072 | 0.0291 | -0.0168 | 0.0072 | 0.0084 | -0.0413 | -0.0427 | -0.017 | -0.0573 | -0.0068 | 0.0242 | -0.0899 | 0.0383 | -0.0667 | -0.0125
NC1(C(=O)N[C@@H](CCO)c2ccc(Cl)cc2)CCN(c2ncnc3[nH]ccc23)CC1 [Capivasertib] + COc1nnc2ccc(N3CCC(c4ccc(OCCN5CCN(C)C(=O)[C@H]5C)cc4)CC3)nn12 [AZD5153] (first compound max 10 µM, 7x7, partner max 1 µM) | -0.0126 | 0.0566 | -0.0186 | -0.0115 | -0.0995 | 0.0597 | 0.0972 | 0.0021 | 0.0617 | -0.045 | -0.0313 | -0.0264 | -0.0003 | 0.0157 | -0.007 | 0.0361 | 0.0292 | -0.0587 | 0.0881 | 0.032
NC1(C(=O)N[C@@H](CCO)c2ccc(Cl)cc2)CCN(c2ncnc3[nH]ccc23)CC1 [Capivasertib] + C[C@@H]1COCCN1C2=NC(=NC(=C2)C3(CC3)[S@](=N)(=O)C)C4=C5C=CNC5=NC=C4 [AZD6738] (first compound max 10 µM, 7x7, partner max 10 µM) | -0.0742 | -0.0189 | -0.0356 | -0.0919 | -0.0078 | -0.0262 | 0.0034 | -0.0166 | -0.0719 | -0.0061 | -0.0405 | 0.0194 | -0.0412 | -0.0125 | -0.0537 | -0.0709 | -0.103 | -0.0553 | -0.0617 | 0.0096
NC1(C(=O)N[C@@H](CCO)c2ccc(Cl)cc2)CCN(c2ncnc3[nH]ccc23)CC1 [Capivasertib] + Cn1cnc2c(F)c(Nc3ccc(Br)cc3Cl)c(C(=O)NOCCO)cc21 [Selumetinib] (first compound max 10 µM, 7x7, partner max 10 µM) | 0.0212 | 0.0313 | 0.0268 | 0.0402 | -0.0045 | 0.108 | 0.0028 | 0.0534 | 0.0005 | 0.0803 | 0.0437 | 0.0018 | 0.032 | -0.0225 | 0.0728 | 0.0891 | -0.0427 | -0.0478 | -0.0651 | -0.0297
Cc1nc(Nc2ncc(C(=O)Nc3c(C)cccc3Cl)s2)cc(N2CCN(CCO)CC2)n1 [Dasatinib] + CC(=O)Nc1cccc(-n2c(=O)n(C3CC3)c(=O)c3c(Nc4ccc(I)cc4F)n(C)c(=O)c(C)c32)c1 [Trametinib] (first compound max 2 µM, 7x7, partner max 1 µM) | -0.0004 | 0.0113 | -0.0708 | -0.0015 | -0.0238 | 0.005 | 0.0199 | 0.112 | -0.179 | -0.0125 | -0.0025 | 0.0328 | -0.0292 | -0.0177 | 0.0178 | -0.0578 | -0.0254 | -0.0069 | -0.073 | -0.0972
COc1cc2ncnc(Nc3ccc(F)c(Cl)c3)c2cc1OCCCN1CCOCC1 [Gefitinib] + CC(C)n1c(=O)n(C)c2cnc3cc(F)c(-c4ccc(OCCCN5CCCCC5)nc4)cc3c21 [AZD1390] (first compound max 10 µM, 7x7, partner max 0.3 µM) | -0.0676 | 0.0037 | -0.03 | -0.0816 | -0.0471 | -0.0343 | -0.0384 | -0.0082 | -0.0938 | -0.0791 | -0.077 | -0.0524 | -0.0293 | -0.0347 | -0.0223 | -0.052 | -0.0359 | -0.046 | -0.0727 | -0.0619
CS(=O)(=O)CCNCc1ccc(-c2ccc3ncnc(Nc4ccc(OCc5cccc(F)c5)c(Cl)c4)c3c2)o1 [Lapatinib] + C[C@@H](Oc1cc(-c2cnn(C3CCNCC3)c2)cnc1N)c1c(Cl)ccc(F)c1Cl [Crizotinib] (first compound max 10 µM, 7x7, partner max 10 µM) | -0.0226 | 0.0067 | -0.0824 | -0.0192 | -0.0004 | -0.0237 | -0.0033 | -0.0344 | -0.039 | 0.0236 | -0.0396 | -0.0937 | -0.0722 | -0.0621 | -0.0111 | -0.0006 | -0.0036 | -0.0063 | -0.056 | -0.0302
CC(=O)c1c(C)c2cnc(Nc3ccc(N4CCNCC4)cn3)nc2n(C2CCCC2)c1=O [Palbociclib] + CC1(C)CCC(CN2CCN(c3ccc(C(=O)NS(=O)(=O)c4ccc(NCC5CCOCC5)c([N+](=O)[O-])c4)c(Oc4cnc5[nH]ccc5c4)c3)CC2)=C(c2ccc(Cl)cc2)C1 [Venetoclax] (first compound max 10 µM, 7x7, partner max 1 µM) | -0.068 | -0.0179 | -0.0487 | 0.0241 | 0.0543 | -0.0231 | -0.0365 | 0.0219 | 0.0475 | 0.0258 | -0.0652 | -0.0203 | -0.0063 | -0.0164 | -0.0545 | -0.0564 | -0.011 | -0.0481 | -0.0344 | -0.0596
CC(=O)c1c(C)c2cnc(Nc3ccc(N4CCNCC4)cn3)nc2n(C2CCCC2)c1=O [Palbociclib] + Cc1c2c(nn1C)CSCc1cc(n(C)n1)CSc1cc(c3ccccc3c1)OCCCc1c(C(=O)O)n(C)c3c-2c(Cl)ccc13 [AZD5991] (first compound max 10 µM, 7x7, partner max 1 µM) | -0.0333 | 0.0076 | -0.0377 | -0.0134 | -0.0247 | 0.0085 | 0.0143 | 0.0062 | -0.0228 | 0.0783 | -0.057 | -0.0111 | -0.0194 | -0.0637 | -0.0242 | -0.0063 | -0.069 | -0.0556 | 0.0193 | -0.126
CC(=O)c1c(C)c2cnc(Nc3ccc(N4CCNCC4)cn3)nc2n(C2CCCC2)c1=O [Palbociclib] + Cn1cnc2c(F)c(Nc3ccc(Br)cc3Cl)c(C(=O)NOCCO)cc21 [Selumetinib] (first compound max 10 µM, 7x7, partner max 10 µM) | -0.0255 | 0.0281 | -0.0288 | -0.0173 | 0.0052 | 0.0131 | -0.0555 | -0.0689 | -0.0488 | 0.0207 | 0.001 | -0.0799 | -0.0164 | -0.0345 | -0.0015 | -0.0441 | -0.0062 | -0.0092 | -0.0269 | 0.115
COc1cccc(OCCCN)c1-c1cc(Nc2cnc(C#N)cn2)n[nH]1 [Prexasertib] + CCc1c2c(nc3ccc(O)cc13)-c1cc3c(c(=O)n1C2)COC(=O)[C@]3(O)CC [SN-38] (first compound max 1 µM, 7x7, partner max 0.3 µM) | 0.115 | 0.0915 | -0.0729 | -0.0489 | 0.121 | 0.123 | -0.0263 | 0.0756 | -0.0081 | -0.0182 | -0.022 | -0.026 | -0.0672 | -0.0091 | -0.0381 | -0.0703 | -0.0173 | -0.0493 | 0.0097 | -0.0233
C[C@@H](c1ccc2nccn2c1)n1nnc2ncc(-c3cnn(C)c3)nc21 [Savolitinib] + CC1(C)CCC(CN2CCN(c3ccc(C(=O)NS(=O)(=O)c4ccc(NCC5CCOCC5)c([N+](=O)[O-])c4)c(Oc4cnc5[nH]ccc5c4)c3)CC2)=C(c2ccc(Cl)cc2)C1 [Venetoclax] (first compound max 1 µM, 7x7, partner max 1 µM) | -0.044 | -0.0137 | -0.0457 | -0.0603 | -0.0623 | -0.0611 | -0.024 | 0.0246 | -0.0562 | -0.0357 | -0.0679 | -0.0318 | -0.0349 | -0.0697 | -0.0176 | -0.0631 | -0.0572 | -0.0664 | -0.095 | -0.107
